Results on seven compounds are retold here after patent US20250230165A1, “HETEROCYCLIC COMPOUNDS FOR USE IN THE TREATMENT OF CANCER” (ARTIOS PHARMA LIMITED, priority 2021, published 2025).

The target in this assay is T1, Human Polθ polymerase domain (aa1820-2590) (Homo sapiens, UniProt O75417).
T1 construct: Human Polθ polymerase domain (aa1820-2590) was expressed in E. coli; made in house; host or cells: E. coli
T1 sequence (O75417 1820-2590): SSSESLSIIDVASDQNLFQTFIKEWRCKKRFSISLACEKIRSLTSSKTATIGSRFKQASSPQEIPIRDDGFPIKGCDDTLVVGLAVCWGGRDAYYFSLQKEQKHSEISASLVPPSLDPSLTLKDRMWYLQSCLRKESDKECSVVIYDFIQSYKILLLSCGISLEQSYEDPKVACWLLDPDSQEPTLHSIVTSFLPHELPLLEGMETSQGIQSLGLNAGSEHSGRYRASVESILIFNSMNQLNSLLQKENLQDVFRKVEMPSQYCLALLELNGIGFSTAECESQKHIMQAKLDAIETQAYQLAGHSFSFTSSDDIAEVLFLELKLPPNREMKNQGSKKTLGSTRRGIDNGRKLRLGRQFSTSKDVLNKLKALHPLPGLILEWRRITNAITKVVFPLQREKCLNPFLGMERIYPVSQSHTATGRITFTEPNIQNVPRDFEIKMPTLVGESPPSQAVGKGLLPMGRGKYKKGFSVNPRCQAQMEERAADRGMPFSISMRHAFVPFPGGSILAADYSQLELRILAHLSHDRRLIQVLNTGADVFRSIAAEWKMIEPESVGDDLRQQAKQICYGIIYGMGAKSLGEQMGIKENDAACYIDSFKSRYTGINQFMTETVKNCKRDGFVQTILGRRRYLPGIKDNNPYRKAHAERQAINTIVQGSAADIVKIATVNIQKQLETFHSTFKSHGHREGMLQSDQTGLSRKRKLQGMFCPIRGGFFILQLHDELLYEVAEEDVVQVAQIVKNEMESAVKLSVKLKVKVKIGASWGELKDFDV
Briefly: Polθ Polymerase Domain Kinact/KI Assay (PicoGreen). It counts as biochemical. The settings on record: 0.8 nM Polθ, 100 nM DNA substrate, kobs vs [I] fit for 2-step covalent inhibitor. In a few lines:
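Time-dependent inhibition was followed by quenching reactions with EDTA at points up to 60 min, then staining product DNA with PicoGreen fluorescence. Reactions held 0.8 nM E. coli-expressed Polθ, 100 nM primed DNA substrate and […] at pH 7.5, 1% DMSO. kobs versus inhibitor concentration gave Kinact and KI.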
Compound `C=CC(=O)N1CC2(CN(CCN3C[C@H]4CC(=O)N(c5cc(C(F)(F)F)cc(C)n5)[C@@H]4C(=O)N(C)c4cccc(Cl)c43)C[C@H]2C#N)C1` (racemic) [Example 117b, (S/R)-2-acryloyl-6-(2-((3aR,11aS)-6-chloro-10-methyl-1-(6-methyl-4-(trifluoromethyl)pyridin-2-yl)-2,11-dioxo-1,2,3,3a,4,10,11,11a-octahydro-5H-benzo[b]pyrrolo[2,3-f][1,4]diazocin-5-yl)ethyl)-2,6-diazaspiro[3.4]octane-8-carbonitrile] yielded a Kinact/Kl of 3.50 µM⁻¹ s⁻¹. Turning to `C=CC(=O)N1CC2(CN(CCN3C[C@H]4CC(=O)N(c5cc(C(F)(F)F)cc(C)n5)[C@@H]4C(=O)N(C)c4cccc(C)c43)C[C@H]2C#N)C1` (racemic) [Example 118b, (S/R)-2-acryloyl-6-(2-((3aR,11aS)-6,10-dimethyl-1-(6-methyl-4-(trifluoromethyl)pyridin-2-yl)-2,11-dioxo-1,2,3,3a,4,10,11,11a-octahydro-5H-benzo[b]pyrrolo[2,3-f][1,4]diazocin-5-yl)ethyl)-2,6-diazaspiro[3.4]octane-8-carbonitrile], the Kinact/Kl stood at 3.36 µM⁻¹ s⁻¹.

With `C=CC(=O)N1CC2(CN(CCN3C[C@H]4CC(=O)N(c5cc(C(F)(F)F)cc(C)n5)[C@@H]4C(=O)N(C)c4cccc(C)c43)C[C@@]2(C)C#N)C1` (racemic) [Example 119b, (S/R)-2-acryloyl-6-(2-((3aR,11aS)-6,10-dimethyl-1-(6-methyl-4-(trifluoromethyl)pyridin-2-yl)-2,11-dioxo-1,2,3,3a,4,10,11,11a-octahydro-5H-benzo[b]pyrrolo[2,3-f][1,4]diazocin-5-yl)ethyl)-8-methyl-2,6-diazaspiro[3.4]octane-8-carbonitrile], the Kinact/Kl stood at 3.87 µM⁻¹ s⁻¹. `C=CC(=O)N1CCC[C@H]1c1ccc(CN2C[C@H]3CC(=O)N(c4cc(C(F)(F)F)cc(C)n4)[C@@H]3C(=O)N(C)c3cccc(F)c32)cc1` (racemic) [Example 141b, (3aR,11aS)-5-(4-((S/R)-1-acryloylpyrrolidin-2-yl)benzyl)-6-fluoro-10-methyl-1-(6-methyl-4-(trifluoromethyl)pyridin-2-yl)-1,3a,4,5,10,11a-hexahydro-2H-benzo[b]pyrrolo[2,3-f][1,4]diazocine-2,11(3H)-dione] came in with a Kinact/Kl of 0.10 µM⁻¹ s⁻¹. As to `C=CC(=O)N1CCn2cc(CN3C[C@H]4CC(=O)N(c5cc(C(F)(F)F)cc(C)n5)[C@@H]4C(=O)N(C)c4cccc(Cl)c43)nc2[C@@H]1C` (racemic) [Example 142b], the Kinact/Kl worked out at 0.63 µM⁻¹ s⁻¹. As to `C=CC(=O)N1Cc2nc(CN3C[C@H]4CC(=O)N(c5cc(C(F)(F)F)cc(C)n5)[C@@H]4C(=O)N(C)c4cccc(Cl)c43)cn2C[C@H]1C` (racemic) [Example 143b, (3aR,11aS)-5-(((S/R)-7-acryloyl-6-methyl-5,6,7,8-tetrahydroimidazo[1,2-a]pyrazin-2-yl)methyl)-6-chloro-10-methyl-1-(6-methyl-4-(trifluoromethyl)pyridin-2-yl)-1,3a,4,5,10,11a-hexahydro-2H-benzo[b]pyrrolo[2,3-f][1,4]diazocine-2,11(3H)-dione], the Kinact/Kl came to 2.32 µM⁻¹ s⁻¹. Take `C=CC(=O)N1Cc2nc(CN3C[C@H]4CC(=O)N(c5cc(C(F)(F)F)cc(C)n5)[C@@H]4C(=O)Nc4cccc(Cl)c43)cn2C[C@@H]1C` (racemic) [Example 144b, (3aR,11aS)-5-(((S/R)-7-acryloyl-6-methyl-5,6,7,8-tetrahydroimidazo[1,2-a]pyrazin-2-yl)methyl)-6-chloro-1-(6-methyl-4-(trifluoromethyl)pyridin-2-yl)-1,3a,4,5,10,11a-hexahydro-2H-benzo[b]pyrrolo[2,3-f][1,4]diazocine-2,11(3H)-dione]: the Kinact/Kl amounted to 2.00 µM⁻¹ s⁻¹.
